Legend:
[1] = test system: hTR in the context of the native telomerase enzyme; assay: RNase H cleavage of hTR directed by antisense DNA oligonucleotides in native telomerase; type: biochemical, human; conditions: for RNaseH Digestion?: antisense DNA oligo, cleavage of hTR in native RNP, Table II; for ability to direct RNase H cleavage of hTR: native telomerase enzyme
Text: The regions were identified in two ways. The first way involved contacting samples containing human telomerase with a variety of DNA polynucleotides having sequences complementary to the sequence of hTR under hybridization conditions, contacting the telomerase with RNase H, which cleaves the RNA strand of an RNA-DNA duplex, and determining whether hTR had been cleaved. […] The second way involved oligo-decoration. […] Other accessible areas of hTR can be identified by similar assays using antisense polynucleotides whose sequences are substantially complementary to a nucleotide sequence selected from hTR.
A set of 17 contiguous antisense DNA oligonucleotides (30 mers) were tested for their ability to direct RNase H cleavage of hTR in the context of the native telomerase enzyme. […] Antisense oligonucleotides "14", "16", and "21" (see Table II) were tested as potential inhibitors of human telomerase ("hTase").
The accessible regions were "fine mapped" by using shorter antisense oligonucleotides to direct RNase H cleavage of hTR.

telomerase [2] = assay: Capture of active telomerase on streptavidin beads by biotinylated 2'OMe antisense analogs; type: binding, human; conditions: for Capture? (2'OMe): biotinylated 2'OMe antisense RNA analog of the oligo, streptavidin beads; for Capture? (2'OMe) / Activity on beads: Table II; for capture of active telomerase on streptavidin beads: biotinylated 2'OMe analogs; for Activity on beads: telomerase activity on beads after capture by 2'OMe analog
Text: On the bases of the antisense data, biotinylated 2'OMe antisense RNA analogs were designed for affinity purification of telomerase. The goal of the antisense affinity approach was to design ligands that afforded good purification and yield, while keeping the enzyme intact (i.e., active). Several 2'OMe ligands met our criteria (Table II, FIG. 1). […] These analogs were further refined via the synthesis of second generation antisense affinity ligands, which were designed to allow release of active telomerase (reversible ligands). Currently, our affinity scheme consists of two reversible antisense ligands, which are employed in series, and target two different regions of hTR. The first ligand is a disulfide version of 14ab which allows release of telomerase via dithiothreitol treatment. The second ligand contains the 21ab1 antisense sequence and plus a tail of "nonsense" sequence. hTR is released from the antisense ligand by a displacement DNA oligonucleotide, which is complementary to the entire length of the 21ab1 antisense affinity ligand.

[3] = test system: human telomerase ("hTase"); assay: Inhibition of human telomerase, standard primer elongation assay; type: biochemical; conditions: preincubation of partially purified nuclear or cytoplasmic extract with oligonucleotide
[4] = test system: telomerase ribonucleoprotein; assay: Oligodecoration: native gel mobility shift with labeled 2'-O-methyl antisense polynucleotides; type: binding, human; conditions: radioactively labeled 2'-O-methyl antisense polynucleotide; altered mobility on native gel
Experimental: Oligodecoration was used to further identify accessible regions of the telomerase ribonucleoprotein. Radioactively labeled 2 0-methyl antisense polynucleotides were prepared and exposed to the telomerase ribonucleoprotein. The sample was incubated to allow the polynucleotide to bind to telomerase. Then the sample was run on a native gel. […] RP2 has the sequence CGG GCC AGC AGC TGA CA (SEQ ID NO:14).

telomerase [5] = assay: Capture of telomerase on an affinity matrix; type: binding, human

Substance | RNaseH Digestion? [1] | ability to direct RNase H cleavage of hTR [1] | Capture? (2'OMe) (telomerase [2]) | other results
5' CATTTTTTGTTTGCTCTAGA 3' (antisense CATTTTTTGTTTGCTCTAGA; chemistry not given here) [20/21, antisense 20 mer] | yes |  |  | 
5' CCAACTCTTCGCGGTGGCAG 3' (antisense CCAACTCTTCGCGGTGGCAG; chemistry not given here) [Oligo 16bc, antisense 20 mer of the "16" region] | yes | directed RNase H cleavage | yes | 
5' CCTGCGGCCTGAAACGGTGA 3' (antisense CCTGCGGCCTGAAACGGTGA; chemistry not given here) [Oligo 14bc, antisense 20 mer of the "14" region] | no |  |  | 
5' CGT TCC TCT TCC 3' (antisense CGTTCCTCTTCC; biotinylated 2'OMe, further chemistry not given here) [Oligo 14d, antisense 12 mer of the "14" region; biotinylated 2'OMe analog used for capture] | yes | directed RNase H cleavage | yes | capture of active telomerase on streptavidin beads (telomerase [2]): "captured" active telomerase; Activity on beads (telomerase [2]): yes
5' CGT TCC TCT TCC TGC G9C CT 3' [Oligo 14ab] | yes | directed RNase H cleavage | yes | capture of active telomerase on streptavidin beads (telomerase [2]): "captured" active telomerase; Activity on beads (telomerase [2]): yes
5' CGTTCCTCTTCCTGCGGCCTGAAACGGTGA 3' (antisense CGTTCCTCTTCCTGCGGCCTGAAACGGTGA; chemistry not given here) [Oligo 14, antisense DNA 30 mer against hTR nucleotides 350-380] | yes | directed efficient cleavage of hTR |  | inhibition of hTase activity [3]: did not significantly affect hTase activity
5' CTGACAGAGCCCAACTCTTC 3' (antisense CTGACAGAGCCCAACTCTTC; chemistry not given here) [Oligo 16ab, antisense 20 mer of the "16" region] | yes | directed RNase H cleavage | yes | Activity on beads (telomerase [2]): no
5' CTGACAGAGCCCAACTCTTCGCGGTGGCAG 3' (antisense CTGACAGAGCCCAACTCTTCGCGGTGGCAG; chemistry not given here) [Oligo 16, antisense DNA 30 mer against hTR nucleotides 290-319] | yes | directed efficient cleavage of hTR |  | inhibition of hTase activity [3]: did not significantly affect hTase activity
5' GCT CTA G 3' [Oligo 21ab1] | yes |  | yes | capture of active telomerase on streptavidin beads (telomerase [2]): "captured" active telomerase; Activity on beads (telomerase [2]): yes
5' GCT CTA GAA TG 3' (antisense GCTCTAGAATG; chemistry not given here) [Oligo 21ab2, shorter antisense oligo of the "21" region] | yes |  | yes | 
5' GCT CTA GAA TGA ACG 3' (antisense GCTCTAGAATGAACG; chemistry not given here) [Oligo 21ab3, shorter antisense oligo of the "21" region] | yes |  |  | 
5' GCT CTA GAA TGA ACG GTG G 3' (antisense GCTCTAGAATGAACGGTGG; chemistry not given here) [Oligo 21ab, shorter antisense oligo of the "21" region] | yes |  | yes | 
5' GCTCTAGAATGAACGGTGGAAGGCGGCAGG 3' (antisense GCTCTAGAATGAACGGTGGAAGGCGGCAGG; chemistry not given here) [Oligo 21, antisense DNA 30 mer directed against nucleotides 137 to 166 of hTR] | yes | directed efficient cleavage of hTR |  | inhibition of hTase activity [3]: potent inhibition of hTase
CGG GCC AGC AGC TGA CA (antisense CGGGCCAGCAGCTGACA; 2'-O-methyl, further chemistry not given here) [RP2] |  |  |  | binding to the telomerase ribonucleoprotein [4]: found to bind; ability to capture telomerase on an affinity matrix (telomerase [5]): demonstrated an ability to capture telomerase
